Columns and labels:
Hs766t = assay: In cell dynamic 13C NMR of hyperpolarized [1-13C] NAC at 1T, Hs766t cells; assay type: cell-based, human
Excerpt: FIG. 2A is a in cell dynamic ^13C NMR spectra of hyperpolarized [1-^13C] NAC at 1T NMR on 20×10^6 cells of human pancreatic tumor cell lines of Hs766t (left) and expanded spectra with 100 times magnifications at 2 seconds after the hyperpolarized [1-^13C] NAC injections in Hs766t (right);
(§1) In an embodiment, a cell dynamic ^13C NMR spectra of hyperpolarized [1-^13C] NAC at 1T NMR spectrometer on human pancreatic ductal adenocarcinoma (PDAC) cell lines, which have one of the worst prognosises among common cancers and need effective diagnostic approaches, Hs766t (FIG. 2A) and SU.86.86 (FIG. 2B), in both cases, the cell dynamic ^13C-nuclear magnetic resonance (NMR) spectra of the hyperpolarized [1-^13C] […]
(§2) All of the animal experiments were conducted in compliance with the Guide for the Care and Use of Laboratory Animal Resources, and experimental protocols were approved by the Animal Care and Use Committee, National Cancer Institute (NCI-CCR-ACUC) (National Research Council, Committee for the Update of the Guide for the Care and Use of Laboratory Animals. Guide for the care and use of laboratory animals. Washington, D.C.: Institute of Laboratory Animal Resources 2011). […] Both respiration (60-90 breaths per min) and temperature (35-37° C.) were maintained at a normal physiological range and monitored continuously during the animal experiment using the adjusted anesthesia.

acylase 1 = target: T1, acylase 1 (Homo sapiens, UniProt Q03154); assay: In vitro enzymatic assay of hyperpolarized NAC incubated with acylase 1 (1T NMR); assay type: biochemical; conditions: without inhibitor
T1 sequence (Q03154 1-408): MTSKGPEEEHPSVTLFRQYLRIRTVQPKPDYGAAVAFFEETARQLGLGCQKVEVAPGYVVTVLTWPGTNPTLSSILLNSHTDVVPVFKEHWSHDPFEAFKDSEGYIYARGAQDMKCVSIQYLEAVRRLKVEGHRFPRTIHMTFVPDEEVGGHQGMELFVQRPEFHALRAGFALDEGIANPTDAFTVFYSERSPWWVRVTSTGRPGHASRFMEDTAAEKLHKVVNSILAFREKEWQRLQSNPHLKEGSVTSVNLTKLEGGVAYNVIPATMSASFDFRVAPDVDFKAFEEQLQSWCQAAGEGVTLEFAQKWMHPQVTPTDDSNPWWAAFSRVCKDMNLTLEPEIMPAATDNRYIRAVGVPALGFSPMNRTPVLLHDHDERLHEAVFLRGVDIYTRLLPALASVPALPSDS

[1] = tested on: SU.86.86 tumor xenografts; assay: Dynamic 13C MR spectra of hyperpolarized [1-13C] NAC at 3T MRI, SU.86.86 tumor xenografts; assay type: in vivo; conditions: SU.86.86 mouse leg xenograft, iv, FIGS. 4B, 4C
Protocol: (§3) All of the animal experiments were conducted in compliance with the Guide for the Care and Use of Laboratory Animal Resources, and experimental protocols were approved by the Animal Care and Use Committee, National Cancer Institute (NCI-CCR-ACUC) (National Research Council, Committee for the Update of the Guide for the Care and Use of Laboratory Animals. Guide for the care and use of laboratory animals. Washington, D.C.: Institute of Laboratory Animal Resources 2011). The human pancreatic ductal adenocarcinoma (PDAC) cell lines, […], and SU.86.86 cells, were purchased from Threshold Pharmaceuticals (Redwood City, Calif.). Human pancreatic tumor inoculated mice were generated by subcutaneous injection of 3×10^5 cells into the right hind legs of mice. Detailed conditions for cell culture and xenograft tumor development were as described previously in K. Yamamoto, J. R. Brender, T. Seki, S. Kishimoto, N. Oshima, R. Choudhuri, S. S. Adler, E. M. Jagoda, K. Saito, N. Devasahayam, P. L. Choyke, J. B. Mitchell, and M. C. Krishna, Cancer Res 2020, 80, 2087-2093, which is incorporated herein in its entirety by reference. […] Both respiration (60-90 breaths per min) and temperature (35-37° C.) were maintained at a normal physiological range and monitored continuously during the animal experiment using the adjusted anesthesia. […]

SU.86.86 = assay: In cell dynamic 13C NMR of hyperpolarized [1-13C] NAC at 1T, SU.86.86 cells; assay type: cell-based, human
Excerpt: FIG. 2B is a in cell dynamic ^13C NMR spectra of hyperpolarized [1-^13C] NAC at 1T NMR on 20×10^6 cells of human pancreatic tumor cell lines of SU.86.86 (left) and expanded spectra with 100 times magnifications at 2 seconds after the hyperpolarized [1-^13C] NAC injections in SU.86.86 (right);
as §1, §2

Hs766t tumor xenografts = assay: Dynamic 13C MR spectra and CSI of hyperpolarized [1-13C] NAC at 3T MRI, Hs766t tumor xenografts; assay type: in vivo, mouse
Protocol: as §3

[2] = Hyperpolarized 13C chemical shift imaging (CSI) in healthy mouse body and head after iv injection

## CC(=O)N[C@@H](CS)[13C](=O)O [[1-^13C] NAC, [1-^13C] N-acetyl cysteine]
Hs766t; Hs766t, 20×10^6 cells, FIG. 2C
  NAC-GSH formation in cell culture: can produce NAC-glutathione (NAC-GSH)
Hs766t; PDAC cell cultures (Hs766t and SU.86.86), suggested by the rapid kinetics of NAC-GSH formation
  cell membrane permeation: may permeabilize through cell membranes without active transport
Acylase 1
  enzymatic conversion by acylase 1: immediate production of cysteine
[1]
  NAC-GSH formation in tumor: rapidly formed
SU.86.86; SU.86.86 compared with Hs766t
  NAC-GSH concentrations: Lower concentrations NAC-GSH
SU.86.86; SU.86.86, 20×10^6 cells, FIG. 2C
  NAC-GSH formation in cell culture: can produce NAC-glutathione (NAC-GSH)
Hs766t tumor xenografts; Hs766t compared with SU.86.86 tumors, FIGS. 4C and 4D
  amount of NAC-GSH formed: higher in Hs766t than in SU.86.86 tumors
Hs766t tumor xenografts; Hs766t mouse leg xenograft, iv, FIGS. 4A, 4C
  NAC-GSH formation in tumor: rapidly formed
[2]; healthy mouse, iv tail vein cannula, 13C CSI
  time to global distribution throughout the mouse body after injection: ≤ 30 s
[2]; healthy mouse, iv, 13C CSI, FIG. 6A
  tissue distribution: lung region signal: lower signal
[2]; normal mice, in vivo, no imposed oxidative stress
  metabolites in the liver and kidney regions: not observed

Reference: patent US20230068456A1, “REAL-TIME MONITORING OF IN VIVO FREE RADICAL SCAVENGERS THROUGH HYPERPOLARIZED N-ACETYL CYSTEINE ISOTOPES” (THE UNITED STATES OF AMERICA, AS REPRESENTED BY THE …, priority 2020, published 2023)
